Here are results for 6 compounds from paper PMC7790557, “Pleiotropic Properties of Amphiphilic Dihydropyridines, Dihydropyridones, and Aminovinylcarbonyl Compounds” (Oxidative Medicine and Cellular Longevity, 2020).

Where two headings read alike, the source gives them in different places.

The conditions of data set [1]: cited from earlier work.
Data set [2] concerns MH-22A (mouse hepatoma). Nature of the data set: Cytotoxicity, crystal violet (CV) assay, MH-22A. The data set is classed as cell-based. The conditions noted are these: Mus musculus, 72 h exposure, read-out: MH-22A IC50 (CV). The protocol:
(§1) After incubation, the staining solution was removed. The cells were washed 4 times with water.

A short description of data set [3]: Electrochemical oxidation potentials, cyclic voltammetry. Type of data set: physicochemical. The conditions noted are these: glassy carbon electrode, dry acetonitrile; for Oxidation potential E^ox: Table 4, vs Ag/Ag+, 0.1 M TBABF4, tested as perchlorates; for electrooxidation potential: cyclic voltammetry. As for the experimental part: A stationary glassy carbon disk electrode (d = 0.5 mm) served as the working electrode, while the counterelectrode was a Pt wire. The oxidation potentials were measured relative to a Ag/Ag^+ reference electrode. Acetonitrile was dried over P2O5 and distilled; the distillate was stored over CaH2 and redistilled just before use. Recrystallized tetrabutylammonium tetrafluoroborate (TBABF4) was used as a supporting electrolyte at 0.1 M concentration.
The electrochemical oxidation of the selected compounds studied in this work was performed by cyclic voltammetry on a stationary glassy carbon electrode in dry acetonitrile; the data is presented in Table 4. The perchlorates of the tested amphiphiles were obtained from the corresponding bromides by treating their abs. MeOH solutions with excess of conc. HClO4 according to the procedure elaborated by Turovska et al..

In data set [4] the test system is MH-22A (mouse hepatoma). In words: Cytotoxicity, MTT assay, MH-22A. Type of data set: cell-based. The conditions noted are these: Mus musculus, 72 h exposure, read-out: MH-22A IC50 (MTT). From the text: (§2) Reduction takes place only when mitochondrial reductase enzymes are active, and therefore, conversion is directly related to the number of viable cells which can be quantified by the absorbance of the solution (between λ = 500 and 600 nm) using a spectrophotometer.
(In general: Formazan colour is commonly taken as a measure of viable cells.)

The subject of data set [5] is NIH3T3 (mouse embryonic fibroblast). Nature of the data set: Basal cytotoxicity test, Neutral Red Uptake (NRU) assay. The conditions noted are these: for IC50: Mus musculus, NIH3T3, 24 h.
Method: The NRU cytotoxicity assay procedure is based on the ability of viable cells to incorporate and bind neutral red, a supravital dye.
Balb/c NIH 3T3 (mouse Swiss albino embryo fibroblast, ATCC® CRL-1658™) cells (9000 cells/well) were placed into 96-well plates for 24 h in Dulbecco's modified Eagle's medium (DMEM) containing 5% fetal bovine serum. Then, the cells were exposed to the test compound over a range of seven concentrations (1000, 316, 100, 31, 10, 3, and 1 μg/ml) for 24 h. Untreated cells were used as a control. After 24 h, the medium was removed from all plates. Then, 150 μl of neutral red solution was added (0.05 mg/ml NR in DMEM 24 h preincubated at 37°C and then filtered before use through a 0.22 μm syringe filter). Plates were incubated for 3 h, and then, the cells were washed three times with PBS. The dye within viable cells was released by extraction with a mixture of acetic acid, ethanol, and water (1 : 50 : 49). The absorbance of neutral red was measured using a spectrophotometer multiplate reader (Tecan Infinite M1000) at 540 nm. The optical density (OD) was calculated using the following formula: OD (treated cells) × 100/OD (control cells). The IC50 values were calculated using the GraphPad Prism® 3.0 program.
For another data set, the system named is NIH3T3. Nature of the data set: in vitro. The settings on record: mouse.
The conditions of data set [6]: previous results; cited from earlier work.
Data set [7] concerns HT-1080 (human lung fibrosarcoma). Nature of the data set: Cytotoxicity, MTT assay, HT-1080. Type of data set: cell-based. The settings on record: Homo sapiens, HT-1080, 72 h exposure, read-out: HT-1080 IC50 (MTT).
Text: as §2

Data set [8] shares this test system. In words: Cytotoxicity, crystal violet (CV) assay, HT-1080. The conditions noted are these: Homo sapiens, HT-1080, 72 h, read-out: HT-1080 IC50 (CV).
Method: IC50 is the compound concentration (μg/ml) at which 50% of the cells die. […] CV staining can be used to quantify the total DNA of the remaining population and thus is used to determine the number of live cells based on the concentration of the dye which remains after staining.
Tumor cell lines HT-1080 (human connective tissue fibrosarcoma, ATCC® CCL-121™) and MH-22A (mouse hepatocarcinoma, ECACC, cat. Nr. 96121721) were used.
HT-1080 and MH-22A cells were seeded in 96-well plates in Dulbecco's modified Eagle's (DMEM) medium containing 10% fetal bovine serum and 4 mM L-glutamine, without antibiotics, and cultivated for 72 h by exposure to different concentrations of compounds. Cell viability was measured using 3-(4,5-dimethylthiazol-2-yl)-2,5-diphenyltetrazolinium bromide (MTT). In brief, after incubating with compounds, the culture medium was removed and fresh medium with 0.2 mg/ml MTT was added in each well of the plate. After incubation (3 h, 37°C, 5% CO2), the medium with MTT was removed, and 200 μl DMSO was added at once to each sample. The samples were tested at 540 nm on a Tecan Infinite M1000 multiplate reader. The IC50 was calculated using the program GraphPad Prism® 3.0.
For the CV assay, cells were stained with 0.05% crystal violet (Sigma-Aldrich) in 30% methanol for 20 minutes at room temperature. After incubation, the staining solution was removed. The cells were washed 4 times with water. For dye solubilization, 200 μl of a solubilizing solution (0.1 M citrate buffer, pH 4.2 in 50% ethanol; 1 : 1 v/v) was added. The absorbance of the solution was measured using a Tecan Infinite M1000 multiplate spectrophotometer at a wavelength of 570 nm [21].
The subject of data set [9] is cancer cell lines HT-1080 and MH-22A. In words: in vitro. The data set is classed as cell-based. The protocol:
as §1

As a reminder, the IC50 is the concentration needed to halve the response being measured.

Consider `CCOC(=O)C1=C(C)NC(C)=C(C(=O)OCC)C1` [Diludin, reference compound], for which, in [1], the “antiradical activity (ARA)” value is listed as 40%.
Regarding `CCOC(=O)C1=C(C[n+]2ccccc2)NC(C[n+]2ccccc2)=C(C(=O)OCC)C1c1ccccc1.[Br-].[Br-]` [compound 1, 1,1'-((3,5-Bis(ethoxycarbonyl)-4-phenyl-1,4-dihydropyridine-2,6-diyl)bis(methylene))-bis(pyridin-1-ium) dibromide], the IC50 is greater than 100 µg/mL in the data set on MH-22A (mouse hepatoma) [2] (Table 1); greater than 100 µg/mL in the data set on MH-22A (mouse hepatoma) [4] (Table 1); greater than 1000 µg/mL in data set [5] (read-out: NIH3T3 IC50 (NR)); greater than 100 µg/mL in data set [7] (Table 1); greater than 100 µg/mL in data set [8]. In data set [3], the “Oxidation potential E^ox” value stood at 1.57 V. In addition, the electrooxidation potential in data set [3] is given as 1.57–1.58 V. Further, the “LD50 (calculated, NIH3T3)” value in the data set on NIH3T3 is on record as greater than 2000 mg/kg. Further, the electrochemical oxidation potential in data set [6] is given as 1.7 V.
As for `CCCCCCCCCCCCOC(=O)C1=C(C[n+]2ccc(N(C)C)cc2)NC(C[n+]2ccc(N(C)C)cc2)=C(C(=O)OCCCCCCCCCCCC)C1c1ccccc1.[Br-].[Br-]` [compound 13, 1,1'-((3,5-Bis((dodecyloxy)carbonyl)-4-phenyl-1,4-dihydropyridine-2,6-diyl)bis(methylene))bis(4-(dimethylamino)pyridin-1-ium) dibromide], the IC50 stood at 6 ± 2 µg/mL in the data set with MH-22A (mouse hepatoma) [2] (Table 1); 10 ± 3 µg/mL in the data set on MH-22A (mouse hepatoma) [4] (Table 1); 119 ± 13 µg/mL in [5] (read-out: NIH3T3 IC50 (NR)); 3 ± 0.6 µg/mL in data set [7] (Table 1); 10 ± 1 µg/mL in data set [8]. For the same compound, the “antiradical activity (ARA), DPPH free radical scavenging” value in data set [1] (untreated DPPH level designated 100%) is given as 27%.
With `CCCCCCCCCCCCOC(=O)C1=C(C[n+]2ccncc2)NC(C[n+]2ccncc2)=C(C(=O)OCCCCCCCCCCCC)C1c1ccccc1` [compound 16, 1,1'-((3,5-Bis((dodecyloxy)carbonyl)-4-phenyl-1,4-dihydropyridine-2,6-diyl)bis(methylne))bis(pyrazin-1-ium) dibromide], the IC50 was greater than 100 µg/mL with MH-22A (mouse hepatoma) [2] (Table 1); greater than 100 µg/mL in the data set on MH-22A (mouse hepatoma) [4] (Table 1); greater than 1000 µg/mL in data set [5] (read-out: NIH3T3 IC50 (NR), Table 1, 24 h exposure); greater than 100 µg/mL in data set [7] (Table 1); greater than 100 µg/mL in [8]. In addition, the “toxicity to noncancerous NIH3T3 cells (in words)” value in data set [5] is recorded as “nontoxic”. Moreover, in data set [9], the “cytotoxicity to cancer cell lines HT-1080 and MH-22A (in words)” value (shortened to “cytotoxicity”) is given as “practically inert”.
Take `COC(=O)C1=C(C[n+]2ccccc2)NC(=O)CC1c1ccccc1OC(F)F.[Br-]` (stereo not shown) [compound 28, 1-({4-[2-(Difluoromethoxy)phenyl]-3-(methoxycarbonyl)-6-oxo-1,4,5,6-tetrahydropyridin-2-yl}methyl)pyridinium bromide]: the IC50 with MH-22A (mouse hepatoma) [2] (Table 2) is greater than 100 µg/mL; in the data set on MH-22A (mouse hepatoma) [4] (Table 2), greater than 100 µg/mL; in data set [5] (read-out: NIH3T3 IC50 (NR)), 1130 ± 85 µg/mL; in [7] (Table 2) it was greater than 100 µg/mL; in data set [8], greater than 100 µg/mL. Moreover, the “cytotoxicity” value in data set [9] was “inert”.
Consider `COC(=O)C1=C(C[n+]2ccccc2)N(Cc2ccccc2)C(=O)CC1.[O-][Cl+3]([O-])([O-])[O-]` [compound 29, 1-{[1-Benzyl-3-(methoxycarbonyl)-6-oxo-1,4,5,6-tetrahydropyridin-2-yl]methyl}pyridinium perchlorate], for which the IC50 with MH-22A (mouse hepatoma) [2] (Table 2) is greater than 100 µg/mL; in the data set with MH-22A (mouse hepatoma) [4] (Table 2), greater than 100 µg/mL; in data set [5] (read-out: NIH3T3 IC50 (NR), Table 2, 24 h exposure), 972 ± 27 µg/mL; in data set [7] (Table 2), greater than 100 µg/mL; in data set [8], greater than 100 µg/mL. Further, in data set [3], the “Oxidation potential E^ox” value was 2.35 V. The compound also yielded an electrooxidation potential in data set [3] of 2.35 V. For the same compound, in data set [9], the “cytotoxicity” value is on record as “inert”.
